In paper PMC6856409 (Journal of medicinal chemistry, 2019):

Tests used:
[1] = tested on: NLRP3 inflammasome; assay: IL-1β release from mouse peritoneal macrophages upon LPS/ATP challenge; format: cell-based
[2] = tested on: NLRC4 inflammasome; assay: NLRC4 inflammasome selectivity assay, J774A.1 cells, LPS/flagellin, IL-1β ELISA; format: cell-based, murine; conditions: 10 μM compound, LPS (1 μg/mL) 1 h, flagellin (1 μg/mL) 6 h
[3] = tested on: AIM2 inflammasome; assay: AIM2 inflammasome selectivity assay, J774A.1 cells, LPS/poly; format: cell-based, murine; conditions: 10 μM compound, LPS (1 μg/mL) 1 h, poly(dA:dT) (4 μg/ml) 8 h
[4] = tested on: hCMEC/D3 cells; assay: Cytotoxicity on hCMEC/D3 cells; conditions: 20 μM, 2 h

SMILES	inhibitory activity on IL-1β release [1]	effect on IL-1β production by NLRC4 inflammasome [2]	effect on IL-1β production by AIM2 inflammasome [3]	cytotoxicity (cell viability) [4]
C#CCNS(=O)(=O)c1ccc(CCN(Cc2cc(Cl)ccc2OC)C(=O)C=C)cc1 [Compound 2, N-(5-chloro-2-methoxybenzyl)-N-(4-(N-(prop-2-yn-1-yl)sulfamoyl)phenethyl)acryl-amide]	confirmed	significantly inhibited	significantly inhibited	–
C#CCNS(=O)(=O)c1ccc(CCN(Cc2cc(Cl)ccc2OCCC)C(=O)Cc2ccsc2)cc1 [Compound 17, N-(5-chloro-2-propoxybenzyl)-N-(4-(N-(prop-2-yn-1-yl)sulfamoyl)phenethyl)-2-(thio-phen-3-yl)acetamide]	–	did not significantly interfere	did not significantly interfere	did not show significant toxic effects
